# In US20120321571A1, “PARABEN COMPOSITIONS” (ANTERIOS, INC., priority 2011, published 2012):
# Test system: axillary sweating
# Test: Clinical study of the effect of Propylparaben on axillary sweating (gravimetric sweat measurement)
# Type: in vivo, human
smiles,measurement,setting,value
CCCOC(=O)c1ccc(O)cc1 [Propylparaben],greater effectiveness in reducing sweat production than placebo (by responder assessment),"based on percent of subjects with at least 30% reduction versus Baseline, versus placebo (water)",245%
same,conclusion on activity in reducing sweat production,overall conclusion of the clinical study,biologically active in reducing sweat production
same,"reduction in sweat production (average), gravimetric sweat measurement","subjects with moderate to severe primary axillary hyperhidrosis, single topical treatment, 0.20 mg per axilla, two weeks after treatment, 5 minute collection",177 mg
same,percent of subjects with at least a 30% reduction in sweat production compared to Baseline,"two weeks after single topical treatment, 0.20 mg per axilla, gravimetric sweat measurement",70%
same,greater reduction in sweat production than the control (placebo) group,"two weeks after single topical treatment, 0.20 mg per axilla, versus placebo (water)",337%
